The results in this text go back to patent US20090306072A1, “USE OF TYROSINE KINASE INHIBITORS FOR THE TREATMENT OF INFLAMMATORY PROCESSES” (Boehringer Ingelheim Pharma GmbH & Co. KG, priority 2002, published 2009).

The subject of one data set is cigarette smoke-induced influx of neutrophilic granulocytes into the lung tissue. Description: Test 1: inhibition of smoke-induced accumulation of granulocytes in the lung tissue (MPO activity). The class given is in vivo, rats (Sprague-Dawley). The conditions noted are these: Rattus norvegicus; male rats, smoke from 8 cigarettes a day for 5 days; intratracheal dose each day 30 mins before smoke exposure; lung tissue MPO; linear regression; read-out: ID50 (dosage that produced a 50% inhibition of the MPO activity). On the procedure:
Male rats (breed: Sprague-Dawley) weighing from 250-300 g were exposed to the smoke from 8 cigarettes a day for 5 days. […] On the last day of the experiment the animals were killed 4 hours after the final smoke exposure and the lung tissue was removed. From each lung a sample of 70-200 mg was taken and placed in a prepared test tube containing 1 ml of 0.5% hexadecyltrimethyl ammonium bromide. The samples were homogenised for 15 sec with an Ultraturrax. The homogenates were centrifuged off in an Eppendorf bench centrifuge at 15700 g for 5 min at ambient temperature. […] After 10 minutes' incubation at ambient temperature, the absorption was measured with a spectral photometer at a wavelength of 450 nm.
With `COCCN(CC=CC(=O)Nc1cc2c(Nc3ccc(F)c(Cl)c3)ncnc2cc1OCC1CC1)CCOC` [E, 4-[(3-chloro-4-fluoro-phenyl)amino]-6-({4-[bis-(2-methoxyethyl)-amino]-1-oxo-2-buten-1-yl}amino)-7-cyclopropylmethoxy-quinazoline], the ED50 is 0.2 mg/kg. For `C=CC(=O)Nc1cc2c(Nc3ccc(F)c(Cl)c3)ncnc2cc1OCCCCN1CC(=O)O[C@H](C)C1` [B, 4-[(3-chloro-4-fluoro-phenyl)amino]-7-[4-((R)-6-methyl-2-oxo-morpholin-4-yl)-butyloxy]-6-[(vinylcarbonyl)amino]-quinazoline], the ED50 was 0.03 mg/kg. Same read-out and setting: for `C=CC(=O)Nc1cc2c(Nc3ccc(F)c(Cl)c3)ncnc2cc1OCCCCN1CC(=O)O[C@@H](C)C1` [D, 4-[(3-chloro-4-fluoro-phenyl)amino]-7-[4-((S)-6-methyl-2-oxo-morpholin-4-yl)-butyloxy]-6-[(vinylcarbonyl)amino]-quinazoline] the value was 0.3 mg/kg. For the molecule `C=CC(=O)Nc1cc2c(Nc3ccc(F)c(Cl)c3)ncnc2cc1OCCCCN1CC(=O)OC(C)(C)C1` [C, 4-[(3-chloro-4-fluoro-phenyl)amino]-7-[4-(2,2-dimethyl-6-oxo-morpholin-4-yl)-butyloxy]-6-[(vinylcarbonyl)amino]-quinazoline], the ED50 turned out to be 0.03 mg/kg. `C[C@@H]1CN(CC=CC(=O)Nc2cc3c(Nc4ccc(F)c(Cl)c4)ncnc3cc2OCC2CC2)CC(=O)O1` [F, 4-[(3-chloro-4-fluoro-phenyl)amino]-6-{[4-((R)-6-methyl-2-oxo-morpholin-4-yl)-1-oxo-2-buten-1-yl]amino}-7-cyclopropylmethoxy-quinazoline]: the ED50 was 0.3 mg/kg. Turning to `C[C@@H](Nc1ncnc2cc(OCC3CC3)c(NC(=O)C=CCN(C)C3CCOCC3)cc12)c1ccccc1` [L, 4-[(R)-(1-phenyl-ethyl)amino]-6-({4-[N-(tetrahydropyran-4-yl)-N-methyl-amino]-1-oxo-2-buten-1-yl}amino)-7-cyclopropylmethoxy-quinazoline], the ED50 amounted to 0.1 mg/kg.

In the case of `COCCN(CC=CC(=O)Nc1cc2c(N[C@H](C)c3ccccc3)ncnc2cc1OCC1CC1)CCOC` [K, 4-[(R)-(1-phenyl-ethyl)amino]-6-{[4-(N,N-bis-(2-methoxy-ethyl)-amino)-1-oxo-2-buten-1-yl]amino}-7-cyclopropylmethoxy-quinazoline], the ED50 was determined as 0.3 mg/kg. In the case of `CCN(CC=CC(=O)Nc1cc2c(N[C@H](C)c3ccccc3)ncnc2cc1OCC1CC1)CCOC` [I, 4-[(R)-(1-phenyl-ethyl)amino]-6-({4-[N-(2-methoxy-ethyl)-N-ethyl-amino]-1-oxo-2-buten-1-yl}amino)-7-cyclopropylmethoxy-quinazoline], the ED50 amounted to 0.2 mg/kg. As to `COc1cc2ncnc(Nc3ccc(F)c(Cl)c3)c2cc1OCCN1CC(=O)O[C@@H](C)C1` [compound A, 4-[(3-chloro-4-fluoro-phenyl)amino]-6-[2-((S)-6-methyl-2-oxo-morpholin-4-yl)-ethoxy]-7-methoxy-quinazoline], the ED50 was 0.1 mg/kg. The same measure, in the same setting: for `COC[C@@H]1CN(CC=CC(=O)Nc2cc3c(Nc4ccc(F)c(Cl)c4)ncnc3cc2OCC2CC2)CC(=O)O1` [H, 4-[(3-chloro-4-fluoro-phenyl)amino]-6-{[4-((S)-2-methoxymethyl-6-oxo-morpholin-4-yl)-1-oxo-2-buten-1-yl]amino}-7-cyclopropylmethoxy-quinazoline] the value was 0.3 mg/kg.

Still in this data set, the particulars now being: male rats, smoke from 8 cigarettes a day for 5 days; intratracheal dose each day 30 mins before smoke exposure; lung tissue MPO; linear regression.
“4-[(3-chloro-4-fluoro-phenyl)amino]-6-[2-((S)-6-methyl-2-oxo-morpholin-4-yl)-ethoxy]-7-methoxy-quinazoline [G]”: the “ID50 (dosage that produced a 50% inhibition of the MPO activity)” value is under 0.03 mg/kg.

The data set is the same for the next values; noted with them: rats, intratracheal 0.03 or 0.1 mg/kg daily, lung tissue myeloperoxidase.
Regarding `COc1cc2ncnc(Nc3ccc(F)c(Cl)c3)c2cc1OCCN1CC(=O)O[C@@H](C)C1` [compound A, 4-[(3-chloro-4-fluoro-phenyl)amino]-6-[2-((S)-6-methyl-2-oxo-morpholin-4-yl)-ethoxy]-7-methoxy-quinazoline], the “inhibition of the smoke-induced accumulation of granulocytes” value is “significant (p<0.005) inhibition”.

The test system of another data set is zymosan-induced influx of neutrophilic granulocytes in the mouse ear. In words: Test 2: inhibition of the zymosan-induced influx of neutrophilic granulocytes in the mouse ear (MPO activity). The class given is in vivo. The conditions noted are these: female NMRI mice, ear biopsy 24 h after intradermal zymosan; p<0.005. The text has this:
• Test 2: Detection of a general anti-inflammatory principle of activity by inhibition of the zymosan-induced influx of neutrophilic granulocytes in the mouse ear by the EGF-receptor kinase inhibitor 4-[(3-chloro-4-fluoro-phenyl)amino]-6-[(4-dimethylamino-cyclohexyl)amino]-pyrimido[5,4-d]pyrimidine (compound N).
Determining the influx of neutrophilic granulocytes by measuring the myeloperoxidase (MPO) activity in the tissue. MPO is specific for neutrophilic granulocytes.
Female mice (breed: NMRI) weighing 20-25 g were anaesthetised with pentobarbital 60 mg/kg i.p. […] of zymosan dissolved in physiological saline in a volume of […] were administered intradermally into the right ear. 24 h after the intradermal application of zymosan the animals were killed with an overdose of pentobarbital. An ear biopsy (0=8 mm) was taken from the left (untreated) and right (treated) ear and placed in a test tube prepared with 1 ml of 0.5% HTAB. The samples were homogenised for 15 sec with an Ultraturrax. The homogenised preparations were centrifuged for 5 min in an Eppendorf bench centrifuge at 15700 g at ambient temperature. […] After 10 minutes' incubation at ambient temperature the absorption was measured with a spectral photometer at a wavelength of 450 nm.
In the case of `CN(C)C1CCC(Nc2ncc3ncnc(Nc4ccc(F)c(Cl)c4)c3n2)CC1` (stereo not drawn) [compound N, 4-[(3-chloro-4-fluoro-phenyl)amino]-6-[(4-dimethylamino-cyclohexyl)amino]-pyrimido[5,4-d]pyrimidine], the “inhibition of the zymosan-induced increase in the MPO activity in the tissue” value worked out at 60%.

Tested on in the next data set: not given
Test: not given
Settings: not given
As for `CCOC(=O)CN(C)CC=CC(=O)Nc1cc2c(Nc3cccc(C)c3)ncnc2cc1OC` [Example 4, 4-[(3-methylphenyl)amino]-6-[(4-{N-[(ethoxycarbonyl)methyl]-N-methylamino}-1-oxo-2-buten-1-yl)amino]-7-methoxy-quinazoline], the melting point is 122 to 124 °C. Same read-out and setting: for `COc1cc2ncnc(Nc3cccc(Br)c3)c2cc1OCCN1CC(=O)O[C@@H](C)C1` [Example 7, 4-[(3-bromo-phenyl)amino]-6-[2-((S)-6-methyl-2-oxo-morpholin-4-yl)-ethoxy]-7-methoxy-quinazoline] the value was 190 °C.

As for `C=CC(=O)Nc1cc2c(Nc3ccc(F)c(Cl)c3)ncnc2cc1OCCCCN1CC(=O)OC(C)(C)C1` [C, 4-[(3-chloro-4-fluoro-phenyl)amino]-7-[4-(2,2-dimethyl-6-oxo-morpholin-4-yl)-butyloxy]-6-[(vinylcarbonyl)amino]-quinazoline], the melting point fell in the range of 110 to 112 °C. The same measure, in the same setting: the same measure for `C[C@H]1CN(CC=CC(=O)Nc2cc3c(Nc4ccc(F)c(Cl)c4)ncnc3cc2OCC2CC2)CC(=O)O1` [Example 6, 4-[(3-chloro-4-fluoro-phenyl)amino]-6-{[4-((S)-6-methyl-2-oxo-morpholin-4-yl)-1-oxo-2-buten-1-yl]amino}-7-cyclopropylmethoxy-quinazoline]: 173 to 175 °C; for `CN(C)CC=CC(=O)Nc1cc2c(Nc3ccc(F)c(Cl)c3)ncnc2cc1OCC1CC1` [Example 3(2), 4-[(3-chloro-4-fluorophenyl)amino]-6-{[4-(N,N-dimethylamino)-1-oxo-2-buten-1-yl]-amino}-7-cyclopropylmethoxy-quinazoline]: 137 °C; for `CN(CC=CC(=O)Nc1cc2c(Nc3ccc(F)c(Cl)c3)ncnc2cc1OC1CCCC1)C1CC1` [Example 8(9), 4-[(3-chloro-4-fluorophenyl)amino]-6-{[4-(N-cyclopropyl-N-methyl-amino)-1-oxo-2-buten-1-yl]amino}-7-cyclopentyloxy-quinazoline]: 140 °C.

As to `CN(C)CC=CC(=O)Nc1cc2c(Nc3ccc(F)c(Cl)c3)ncnc2cc1OC[C@H]1CCCO1` [Example 8(10), 4-[(3-chloro-4-fluorophenyl)amino]-6-{[4-(N,N-dimethylamino)-1-oxo-2-buten-1-yl]-amino}-7-[(R)-(tetrahydrofuran-2-yl)methoxy]-quinazoline], the melting point was in the range of 110 to 112 °C.

The molecule `CCN(CC)CC=CC(=O)Nc1cc2c(Nc3ccc(F)c(Cl)c3)ncnc2cc1OCC1CC1` [Example 3, 4-[(3-chloro-4-fluorophenyl)amino]-6-{[4-(N,N-diethylamino)-1-oxo-2-buten-1-yl]amino}-7-cyclopropylmethoxy-quinazoline] came in with a melting point of 114 °C.

One may read the melting point as the temperature of the solid-liquid transition.
